≈ marks a conversion by molar mass, not a printed value. Where “and” joins values, the source holds several entries; their conditions need not be identical. Equal values may be shown once. Read-outs that look alike come from different tables or passages of the source.
Tests used:
[1] = tested on: Staphylococcus aureus 3055; test: MIC, standard broth-dilution test (Table XII); type: cell-based; settings: aerobic, S. aureus 3055
[2] = Electrometric titration in 66% aqueous dimethylformamide; type: physicochemical; settings: 66% DMF, Na salt forms; factors: two determinations
[3] = tested on: Streptococcus pyogenes C203; test: MIC, standard broth-dilution test (Table XII); type: cell-based; settings: aerobic, S. pyogenes C203
[4] = tested on: Peptostreptococcus anaerobius; test: MIC against anaerobic bacteria, standard agar-dilution (Table XIV); type: cell-based; settings: anaerobe
[5] = tested on: Group D Streptococcus 282; test: MIC, standard agar-dilution test (Table XI); type: cell-based; settings: aerobic, sodium salt form
[6] = tested on: Staphylococcus aureus; test: MIC against clinical isolates, ICS agar-dilution (Table XIII); type: cell-based; settings: 10 clinical isolates, bracket = number of isolates with this MIC or range
[7] = tested on: Clostridium perfringens; settings: anaerobe, agar-dilution
[8] = tested on: Micrococcus luteus; test: Paper-disc agar-diffusion bioassay; settings: individual factors, Na salts
[9] = tested on: Streptococcus pneumoniae Park I; test: MIC, standard broth-dilution test (Table XII); type: cell-based; settings: aerobic, S. pneumoniae Park I
[10] = tested on: Eubacterium aerofaciens; test: MIC against anaerobic bacteria, standard agar-dilution (Table XIV); type: cell-based; settings: anaerobe
[11] = tested on: Fusobacterium symbiosum; test: as above; type: cell-based; settings: anaerobe
[12] = tested on: Streptococcus faecalis (Guze); test: In vitro susceptibility (MIC) of the S. faecalis Guze strain; type: cell-based
Text: ^1 In vitro susceptibility of the S. faecalis Guze strain

[13] = Mouse
[14] = tested on: Neisseria gonorrhoeae 111076-4; test: MIC, standard agar-dilution test (Table XI); type: cell-based; settings: aerobic, N. gonorrhoeae 111076-4, sodium salt form
[15] = tested on: Peptococcus asaccharolyticus; test: MIC against anaerobic bacteria, standard agar-dilution (Table XIV); type: cell-based; settings: anaerobe
[16] = tested on: Group D Streptococcus 282; test: MIC, standard broth-dilution test (Table XII); type: cell-based; settings: aerobic
[17] = tested on: Viridans Streptococcus 9943; test: MIC, standard broth-dilution test (Table XII); type: cell-based; settings: aerobic
[18] = tested on: Peptostreptococcus intermedius; test: MIC against anaerobic bacteria, standard agar-dilution (Table XIV); type: cell-based; settings: anaerobe
[19] = tested on: Streptococcus pyogenes; test: Experimental bacterial infection in mice, ED50; type: in vivo; settings: S. pyogenes infection, two doses
Experimental: (§1) When two doses of test compound were administered to mice in illustrative infections, the activity observed as measured as an ED50 value [effective dose in mg/kg to protect fifty percent of the test animals: See Warren Wick, et al., J. Bacteriol, 81, 233-235 (1961)].

[20] = tested on: Streptococcus pneumoniae; test: Experimental bacterial infection in mice, ED50; type: in vivo; settings: S. pneumoniae infection, two doses, subcutaneous administration
Experimental: as §1

[21] = tested on: Staphylococcus aureus; test: Experimental bacterial infection in mice, ED50; type: in vivo; settings: S. aureus infection, two doses, subcutaneous administration
Experimental: as §1

[22] = tested on: Staphylococcus aureus 3055; test: MIC, standard agar-dilution test (Table XI); type: cell-based; settings: aerobic, S. aureus 3055, sodium salt form
[23] = tested on: Staphylococcus epidermidis; test: MIC against clinical isolates, ICS agar-dilution (Table XIII); type: cell-based; settings: 12 clinical isolates, bracket = number of isolates with this MIC or range
[24] = tested on: Streptococcus faecalis (Guze); test: Streptococcus faecalis descending rat pyelonephritis test; settings: 1.0 mg/kg x 7 subcutaneous; for Percent of Rats Cured: cure = kidney counts less than 10^2 per g; for Percent of Rats with a 4-Log Titer Decrease: once daily, kidney titer vs infected controls
[25] = tested on: Streptococcus pneumoniae Park I; test: MIC, standard agar-dilution test (Table XI); type: cell-based; settings: aerobic, S. pneumoniae Park I, sodium salt form
[26] = tested on: Viridans Streptococcus 9943; test: MIC, standard agar-dilution test (Table XI); type: cell-based; settings: aerobic, sodium salt form
[27] = tested on: Streptococcus pyogenes; test: MIC, agar dilution (Table XV); type: cell-based
Text: (§2) ^1 MIC = minimum inhibitory concentration (μg/ml), agar dilution

[28] = tested on: Streptococcus pneumoniae; test: MIC, agar dilution (Table XV); type: cell-based
Text: as §2

[29] = tested on: Staphylococcus aureus; test: MIC, agar dilution (Table XV); type: cell-based
Text: as §2

[30] = tested on: Streptococcus pyogenes C203; test: MIC, standard agar-dilution test (Table XI); type: cell-based; settings: aerobic, S. pyogenes C203, sodium salt form
[31] = tested on: Bacteroides fragilis; test: MIC against anaerobic bacteria, standard agar-dilution (Table XIV); type: cell-based; settings: anaerobe
[32] = tested on: Actinomyces israelii; test: as above; type: cell-based; settings: anaerobe
[33] = Rat, IV
[34] = tested on: Clostridium septicum; test: MIC against anaerobic bacteria, standard agar-dilution (Table XIV); type: cell-based; settings: anaerobe
[35] = tested on: Propionibacterium acnes; test: as above; type: cell-based; settings: anaerobe
[36] = tested on: Peptococcus prevoti; test: as above; type: cell-based; settings: anaerobe
[37] = tested on: Fusobacterium necrophorum; test: as above; type: cell-based; settings: anaerobe
[38] = tested on: Viridans Streptococcus; test: MIC against clinical isolates, ICS agar-dilution (Table XIII); type: cell-based; settings: 2 clinical isolates, bracket = number of isolates with this MIC or range

Structure (SMILES): CCC(C)CCCCCCC(=O)N[C@@H](Cc1c[nH]c2ccccc12)C(=O)NC(CC(N)=O)C(=O)N[C@@H](CC(=O)O)C(=O)N[C@@H]1C(=O)NCC(=O)N[C@@H](CCCN)C(=O)N[C@@H](CC(=O)O)C(=O)N[C@H](C)C(=O)N[C@@H](CC(=O)O)C(=O)NCC(=O)N[C@H](CO)C(=O)N[C@@H]([C@H](C)CC(=O)O)C(=O)N[C@@H](CC(=O)c2ccccc2N)C(=O)O[C@@H]1C (stereo in doubt) [Factor C1]
- MIC [1]: 1.0 µg/mL (≈ 0.612 µM)
- pKa Values (first group) [2]: 5.7 and 5.9
- MIC [3]: 0.5 µg/mL (≈ 0.306 µM)
- MIC [4]: 2 µg/mL (≈ 1.22 µM)
- MIC [5]: 1.0 µg/mL
- Minimum Inhibitory Concentration [6]: 0.5 µg/mL
- MIC [7]: 16 µg/mL (≈ 9.79 µM)
- Bioassay (Micrococcus luteus) [8]: 1663 units/mg
- MIC [9]: 2.0 µg/mL (≈ 1.22 µM)
- MIC [10]: 16 µg/mL (≈ 9.79 µM)
- MIC [11]: > 128 µg/mL
- MIC [12]: 1.0 µg/mL (≈ 0.612 µM)
- LD50 ([13]; IV): > 250 mg/kg
- LD50 ([13]; SC): > 365 mg/kg
- MIC [14]: 16.0 µg/mL
- MIC [15]: 4 µg/mL (≈ 2.45 µM)
- MIC [16]: 2.0 µg/mL (≈ 1.22 µM)
- MIC [17]: 32.0 µg/mL (≈ 19.6 µM)
- MIC [18]: 4 µg/mL (≈ 2.45 µM)
- ED50 ([19]; oral administration): 93 mg/kg
- ED50 ([19]; subcutaneous administration): 0.064 mg/kg
- ED50 [20]: 0.3 mg/kg
- ED50 [21]: 0.22 mg/kg
- MIC [22]: 0.5 µg/mL
- Minimum Inhibitory Concentration [23]: 0.13 to 0.25 µg/mL
- Percent of Rats Cured [24]: 50
- Percent of Rats with a 4-Log Titer Decrease [24]: 50
- MIC [25]: 0.13 µg/mL
- MIC [26]: 0.5 µg/mL
- MIC [27]: 0.13 µg/mL (≈ 0.0795 µM)
- MIC [28]: 0.13 µg/mL (≈ 0.0795 µM)
- MIC [29]: 0.5 µg/mL (≈ 0.306 µM)
- MIC [30]: 0.13 µg/mL
- MIC [31]: > 128 µg/mL
- MIC [32]: 4 µg/mL (≈ 2.45 µM)
- LD50 [33]: 479 ± 32 mg/kg
- MIC [34]: 4 µg/mL (≈ 2.45 µM)
- MIC [35]: 8 µg/mL (≈ 4.89 µM)
- MIC [36]: 2 µg/mL (≈ 1.22 µM)
- MIC [37]: 64 µg/mL (≈ 39.2 µM)

Structure (SMILES): CCC(C)CCCCCCCCC(=O)NC(Cc1c[nH]c2ccccc12)C(=O)NC(CC(N)=O)C(=O)NC(CC(=O)O)C(=O)NC1C(=O)NCC(=O)NC(CCCN)C(=O)NC(CC(=O)O)C(=O)NC(C)C(=O)NC(CC(=O)O)C(=O)NCC(=O)NC(CO)C(=O)NC(C(C)CC(=O)O)C(=O)NC(CC(=O)c2ccccc2N)C(=O)OC1C (stereo not drawn) [Factor C3]
- MIC [1]: 0.13 µg/mL (≈ 0.0782 µM)
- pKa Values (first group) [2]: 5.73 and 5.75
- pKa Values (second group) [2]: 7.54 and 7.58
- MIC [3]: 0.13 µg/mL (≈ 0.0782 µM)
- MIC [4]: 1.0 µg/mL (≈ 0.601 µM)
- MIC [5]: 0.13 µg/mL
- Minimum Inhibitory Concentration [6]: 0.06 to 0.12 µg/mL
- MIC [7]: 8 µg/mL (≈ 4.81 µM)
- Bioassay (Micrococcus luteus) [8]: 803 units/mg
- MIC [9]: .5 µg/mL (≈ 0.301 µM)
- MIC [10]: 4 µg/mL (≈ 2.41 µM)
- MIC [11]: 16 µg/mL (≈ 9.62 µM)
- MIC [12]: 0.13 µg/mL (≈ 0.0782 µM)
- Minimum Inhibitory Concentration [38]: 0.5 µg/mL
- LD50 ([13]; IV): < 50 mg/kg
- LD50 ([13]; SC): 70 to 75 mg/kg
- MIC [14]: 4.0 µg/mL
- MIC [15]: 1.0 µg/mL (≈ 0.601 µM)
- MIC [16]: 0.13 µg/mL (≈ 0.0782 µM)
- MIC [17]: 32.0 µg/mL (≈ 19.2 µM)
- MIC [18]: < 0.5 µg/mL
- ED50 ([19]; oral administration): 66 mg/kg
- ED50 ([19]; subcutaneous administration): 0.032 mg/kg
- ED50 [20]: 0.09 mg/kg
- ED50 [21]: 0.08 mg/kg
- MIC [22]: 0.06 µg/mL
- Percent of Rats Cured [24]: 78
- Percent of Rats with a 4-Log Titer Decrease [24]: 78
- MIC [25]: 0.13 µg/mL
- MIC [26]: 0.5 µg/mL
- MIC [27]: 0.06 µg/mL (≈ 0.0361 µM)
- MIC [28]: 0.03 µg/mL (≈ 0.018 µM)
- MIC [29]: 0.06 µg/mL (≈ 0.0361 µM)
- MIC [30]: 0.25 µg/mL
- MIC [31]: > 128 µg/mL
- MIC [32]: 1.0 µg/mL (≈ 0.601 µM)
- LD50 [33]: < 160 mg/kg
- MIC [34]: 1.0 µg/mL (≈ 0.601 µM)
- MIC [35]: 1.0 µg/mL (≈ 0.601 µM)
- MIC [36]: < 0.5 µg/mL
- MIC [37]: 32 µg/mL (≈ 19.2 µM)

From USRE32333E, “A-21978 Antibiotics and process for their production” (priority 1985, dated 1987)
